In paper PMC6983046, “Meroterpenoids from the Fungus Ganoderma sinensis and First Absolute Configuration Clarification of Zizhine H” (Molecules, 2019):

Columns and labels:
[1] = system: KYSE30: human esophageal cancer cells; assay: Cell viability (CCK8) assay, KYSE30; type: cell-based; conditions: for cytotoxic activity (cells sensitive to compound), KYSE30: result in words
Protocol: (§1) All cell lines were purchased from the Cell Bank of China Science Academy (Shanghai, China) and maintained in Dulbecco’s Modified Eagle Medium (DMEM) supplemented with 10% fetal bovine serum and 100 U/mL penicillin-streptomycin, and incubated at 37 °C in an atmosphere of 5% CO2. Cell viability was evaluated by the CCK8 assay kit (Dojindo Laboratories, Tokyo, Japan) according to the manufacturer’s instructions. Exponentially growing cells were seeded at 2–8 × 10^3 cells per well in 96-well culture plates for 24 h. Cells were exposed to increasing concentrations (0–80 μM) of 4, 5, 6, or 5-FU for 48 h. The equal volume of DMSO was used as the solvent control. CCK8 solution (10 μL) was added to each well and incubated for another 1–4 h. Light absorbance of the solution was measured at 450 nm (Epoch 2; BioTek Instruments, Inc. Winooski, VT, USA). The IC50 values were calculated using the GraphPad prism 7 and analyzed by fitting a curve using nonlinear regression. page 53: Figure S63. The calculated and the experimental ECD spectra of 5 and 6. Figure S64. Cytotoxic effects of compound-4,compound-5, compound-6 and 5-FU on human cancer cells (A, B, C) and normal cells (D) Cells were treated with various concentrations of compound-4,compound-5, compound-6 and 5-FU for 48 h. Cytotoxic effect of the compounds was determined by CCK8 assay. Percentages of viable cells were calculated by comparing treated and solvent control cells. Data are the mean ± S.D. of three replicates. […]

[2] = system: A549: human lung cancer cells; assay: Cell viability (CCK8) assay, A549; type: cell-based; conditions: for IC50: CCK8, 48 h
Protocol: as §1

[3] = Cell viability (CCK8) assay, HDF normal cells; type: cell-based, human; conditions: human, HDF cells (normal human embryonic lung fibroblasts), CCK8, 48 h
Protocol: as §1

[4] = system: BGC-823: human gastric cancer cells; assay: Cell viability (CCK8) assay, BGC-823; type: cell-based; conditions: BGC-823 cells; for IC50: CCK8, 48 h; for cytotoxic activity (cells sensitive to compound), BGC-823: result in words
Protocol: as §1

[5] = system: HDF: normal human embryonic lung fibroblasts; assay: Cell viability (CCK8) assay, HDF normal cells; type: cell-based; conditions: CCK8, 48 h
Protocol: as §1

[6] = Homo sapiens, KYSE-30, CCK8, 48 h

IC50 [1, 6] | IC50 ([2]; Homo sapiens, A549, 48 h) | IC50 ([4]; Homo sapiens) | IC50 [2] | IC50 ([1]; CCK8, 48 h) | IC50 [4] | SMILES | IC50 at 48 h [3] | cytotoxic activity (cells sensitive to compound), A549 ([2]; result in words) | cytotoxic activity (cells sensitive to compound), KYSE30 [1] | cytotoxic activity (cells sensitive to compound), BGC-823 [4] | IC50 [5]
> 160 µM | > 160 µM | > 160 µM | – | – | – | C/C(=C\CCC1=CCC[C@](CC(=O)c2cc(O)ccc2O)(C(=O)O)OC1)COC(=O)/C=C/c1ccc(O)cc1 [(+)-2, (S)-2-(2-(2,5-dihydroxyphenyl)-2-oxoethyl)-6-((E)-5-(((E)-3-(4-hydroxyphenyl)acryloyl)oxy)-4-methylpent-3-en-1-yl)-2,3,4,7-tetrahydrooxepine-2-carboxylic acid] | > 160 µM | – | – | – | –
– | – | – | 35 ± 2.42 µM | 8.43 ± 0.19 µM | 37.7 ± 1.87 µM | O=c1[nH]cc(F)c(=O)[nH]1 [Compound 5-FU, reference compound] | – | – | – | – | 51.1 ± 2.43 µM
85.4 ± 2.82 µM | > 160 µM | 64.25 ± 0.37 µM | – | – | – | C/C(=C\C[C@H](O)/C(=C/CCC1=C[C@@H](c2cc(O)ccc2O)OC1=O)CO)COC(=O)/C=C/c1ccc(O)cc1 [Compound 6, (E)-(S,2E,6E)-9-((S)-5-(2,5-dihydroxyphenyl)-2-oxo-2,5-dihydrofuran-3-yl)-5-hydroxy-6-(hydroxymethyl)-2-methylnona-2,6-dien-1-yl 3-(4-hydroxyphenyl)acrylate] | > 160 µM | – | sensitive | sensitive | –
> 160 µM | > 160 µM | > 160 µM | – | – | – | C/C(=C/CC/C(=C/C(=O)c1cc(O)ccc1O)C(=O)O)CO [Compound 7, (2Z,5Z)-2-(2-(2,5-dihydroxyphenyl)-2-oxoethylidene)-7-hydroxy-6-methylhept-5-enoic acid] | > 160 µM | – | – | – | –

Further lines, the compound ahead of its results:

SMILES | IC50 [1, 6] | IC50 ([2]; Homo sapiens, A549, 48 h) | IC50 ([4]; Homo sapiens) | IC50 [2] | IC50 ([1]; CCK8, 48 h) | IC50 [4] | IC50 at 48 h [3] | cytotoxic activity (cells sensitive to compound), A549 ([2]; result in words) | cytotoxic activity (cells sensitive to compound), KYSE30 [1] | cytotoxic activity (cells sensitive to compound), BGC-823 [4] | IC50 [5]
CC(=CCCC1=CCC[C@](CC(=O)c2cc(O)ccc2O)(C(=O)O)OC1)CO [(+)-1, (S,E)-2-(2-(2,5-dihydroxyphenyl)-2-oxoethyl)-6-(5-hydroxy-4-methylpent-3-en-1-yl)-2,3,4,7-tetrahydrooxepine-2-carboxylic acid] | > 160 µM | > 160 µM | > 160 µM | – | – | – | > 160 µM | – | – | – | –
CC(=CCCC1=CCC[C@@](CC(=O)c2cc(O)ccc2O)(C(=O)O)OC1)CO [(−)-1, (R,E)-2-(2-(2,5-dihydroxyphenyl)-2-oxoethyl)-6-(5-hydroxy-4-methylpent-3-en-1-yl)-2,3,4,7-tetrahydrooxepine-2-carboxylic acid] | > 160 µM | > 160 µM | > 160 µM | – | – | – | > 160 µM | – | – | – | –
C/C(=C\CCC1=CCC[C@@](CC(=O)c2cc(O)ccc2O)(C(=O)O)OC1)COC(=O)/C=C/c1ccc(O)cc1 [(−)-2, (R)-2-(2-(2,5-dihydroxyphenyl)-2-oxoethyl)-6-((E)-5-(((E)-3-(4-hydroxyphenyl)acryloyl)oxy)-4-methylpent-3-en-1-yl)-2,3,4,7-tetrahydrooxepine-2-carboxylic acid] | > 160 µM | > 160 µM | > 160 µM | – | – | – | > 160 µM | – | – | – | –
C/C(=C\CC/C(=C/CC/C(=C/Cc1cc(O)ccc1O)C(=O)O)CO)COC(=O)/C=C/c1ccc(O)cc1 [Compound 3, (2Z,5Z,9E)-2-(2-(2,5-dihydroxyphenyl)ethylidene)-6-(hydroxymethyl)-11-(((E)-3-(4-hydroxyphenyl)acryloyl)oxy)-10-methylundeca-5,9-dienoic acid] | > 160 µM | > 160 µM | > 160 µM | – | – | – | > 160 µM | – | – | – | –
COC(=O)/C(=C\C(=O)c1cc(O)ccc1O)CC/C=C(\CO)CC/C=C(\C)COC(=O)/C=C/c1ccc(O)cc1 [Compound 4, (2Z,5Z,9E)-methyl 2-(2-(2,5-dihydroxyphenyl)-2-oxoethylidene)-6-(hydroxymethyl)-11-(((E)-3-(4-hydroxyphenyl)acryloyl)oxy)-10-methylundeca-5,9-dienoate] | > 160 µM | 63.4 to 80.8 µM | > 160 µM | 72.1 ± 8.7 µM | – | – | > 160 µM | sensitive | – | – | –
C/C(=C\C[C@H](O)/C(=C/CCC1=C[C@H](c2cc(O)ccc2O)OC1=O)CO)COC(=O)/C=C/c1ccc(O)cc1 [Compound 5, (E)-(S,2E,6E)-9-((R)-5-(2,5-dihydroxyphenyl)-2-oxo-2,5-dihydrofuran-3-yl)-5-hydroxy-6-(hydroxymethyl)-2-methylnona-2,6-dien-1-yl 3-(4-hydroxyphenyl)acrylate] | 76.3 ± 1.93 µM | > 160 µM | 59.2 ± 2.73 µM | – | – | – | > 160 µM | – | sensitive | sensitive | –
